Reference: article PMC7162859 (Scientific Reports, 2020)
Read-outs that look alike come from different tables or passages of the source.

Legend:
[1] = Brain distribution after single intraperitoneal dose in FVB wild-type, Bcrp1-/-, Mdr1a/b-/- and Mdr1a/b-/- Bcrp1-/- mice; assay type: in vivo, mouse (FVB); conditions: for DA (Distribution advantage) / concentration at 2 h / concentration at 6 h / Kp at 2 h / Kp at 6 h: 10 mg/kg i.p.; for concentration at 2 h / concentration at 6 h / Kp at 2 h / Kp at 6 h: FVB, mouse, 10 mg/kg; for concentration at 2 h / concentration at 6 h: intraperitoneal; for Kp at 2 h / Kp at 6 h: brain/plasma, ip, read-out: Kp brain (Cbrain/Cplasma)
Procedure: At 2 and 6 hours following administration of ispinesib, whole blood and brain samples were harvested, and blood samples were centrifuged for plasma separation. Additional details on the conduct of in vivo pharmacokinetic studies are described in the supplementary methods. The drug concentrations in all samples were measured by a specific and sensitive LC-MS/MS assay for ispinesib.
Kp=CbrainCplasma (Equation 4)
DA= Kp, knockoutKp, wildtype (Equation 5)

[2] = in vivo; conditions: FVB, mouse, iv, 5 mg/kg
[3] = GBM-bearing rats; for Fold increase in Kp over the Kp in normal brain of ispinesib treated group: 10 mg/kg ip, 2 hours; for increase in Kp when elacridar is co-administered with ispinesib: vs ispinesib alone

Cc1ccc(C(=O)N(CCCN)[C@@H](c2nc3cc(Cl)ccc3c(=O)n2Cc2ccccc2)C(C)C)cc1 [Ispinesib, N-(3-aminopropyl)-N-[(1 R)-1-(3-benzyl-7-chloro-4-oxoquinazolin-2-yl)-2-methylpropyl]-4-methylbenzamide]
DA (Distribution advantage) ([1]; 2 hrs, Bcrp1a/b-/-): 1
DA (Distribution advantage) ([1]; 2 hrs, Mdr1a/b-/-): 3
DA (Distribution advantage) ([1]; 2 hrs, Mdr1a/b-/- Bcrp1a/b-/-): 28
DA (Distribution advantage) ([1]; 2 hrs, Wild-type): 1
DA (Distribution advantage) ([1]; 6 hrs, Bcrp1a/b-/-): 1
DA (Distribution advantage) ([1]; 6 hrs, Mdr1a/b-/-): 10
DA (Distribution advantage) ([1]; 6 hrs, Mdr1a/b-/- Bcrp1a/b-/-): 33
DA (Distribution advantage) ([1]; 6 hrs, Wild-type): 1
concentration at 2 h ([1]; brain, 2 hrs, Bcrp1a/b-/-, read-out: Cbrain): 0.14 ± 0.02 µg/mL
concentration at 2 h ([1]; brain, 2 hrs, Mdr1a/b-/- Bcrp1a/b-/-, read-out: Cbrain): 3.77 ± 0.67 µg/mL
concentration at 2 h ([1]; brain, 2 hrs, Mdr1a/b-/-, read-out: Cbrain): 0.58 ± 0.14 µg/mL
concentration at 2 h ([1]; brain, 2 hrs, Wild-type, read-out: Cbrain): 0.18 ± 0.09 µg/mL
concentration at 6 h ([1]; brain, 6 hrs, Bcrp1a/b-/-, read-out: Cbrain): 0.15 ± 0.03 µg/mL
concentration at 6 h ([1]; brain, 6 hrs, Mdr1a/b-/- Bcrp1a/b-/-, read-out: Cbrain): 5.59 ± 2.85 µg/mL
concentration at 6 h ([1]; brain, 6 hrs, Mdr1a/b-/-, read-out: Cbrain): 1.1 ± 0.1 µg/mL
concentration at 6 h ([1]; brain, 6 hrs, Wild-type, read-out: Cbrain): 0.14 ± 0.08 µg/mL
Kp at 2 h ([1]; 2 hrs, Bcrp1a/b-/-): 0.08
Kp at 2 h ([1]; 2 hrs, Mdr1a/b-/- Bcrp1a/b-/-): 3.07
Kp at 2 h ([1]; 2 hrs, Mdr1a/b-/-): 0.35
Kp at 2 h ([1]; 2 hrs, Wild-type): 0.11
Kp at 6 h ([1]; 6 hrs, Bcrp1a/b-/-): 0.15
Kp at 6 h ([1]; 6 hrs, Mdr1a/b-/- Bcrp1a/b-/-): 5.2
Kp at 6 h ([1]; 6 hrs, Mdr1a/b-/-): 1.52
Kp at 6 h ([1]; 6 hrs, Wild-type): 0.16
concentration at 2 h ([1]; plasma, 2 hrs, Bcrp1a/b-/-, read-out: Cplasma): 1.74 ± 0.42 µg/mL
concentration at 2 h ([1]; plasma, 2 hrs, Mdr1a/b-/- Bcrp1a/b-/-, read-out: Cplasma): 1.59 ± 1.07 µg/mL
concentration at 2 h ([1]; plasma, 2 hrs, Mdr1a/b-/-, read-out: Cplasma): 1.75 ± 0.73 µg/mL
concentration at 2 h ([1]; plasma, 2 hrs, Wild-type, read-out: Cplasma): 1.61 ± 0.72 µg/mL
concentration at 6 h ([1]; plasma, 6 hrs, Bcrp1a/b-/-, read-out: Cplasma): 1.06 ± 0.4 µg/mL
concentration at 6 h ([1]; plasma, 6 hrs, Mdr1a/b-/- Bcrp1a/b-/-, read-out: Cplasma): 1.03 ± 0.21 µg/mL
concentration at 6 h ([1]; plasma, 6 hrs, Mdr1a/b-/-, read-out: Cplasma): 0.87 ± 0.54 µg/mL
concentration at 6 h ([1]; plasma, 6 hrs, Wild-type, read-out: Cplasma): 0.87 ± 0.54 µg/mL
efflux transporter substrate status ([1]; from brain distribution in transporter-deleted mice): a substrate for P-gp and Bcrp transporters
Kp uu ([2]; brain and plasma): 0.02
Kp uu ([2]; brain/plasma): 1
AUC(0-inf) ([2]; plasma): 5.8 µg·h/mL
AUC(0-t) ([2]; plasma): 7.5 ± 0.4 µg·h/mL
clearance ([2]; plasma): 0.594 L/h/kg
half-life ([2]; plasma): 4.8 h
Fold increase in Kp over the Kp in normal brain of ispinesib treated group ([3]; Normal brain): 1
Fold increase in Kp over the Kp in normal brain of ispinesib treated group ([3]; Tumor core): 7
Fold increase in Kp over the Kp in normal brain of ispinesib treated group ([3]; Tumor rim): 2.5
increase in Kp when elacridar is co-administered with ispinesib ([3]; tumor core): 4 fold
increase in Kp when elacridar is co-administered with ispinesib ([3]; tumor rim and normal brain regions): approximately 10 fold
